Reference: patent publication US11596615B2, “Compositions and methods for treatment of insulin resistance” (Temple University—Of The Commonwealth System Of Higher …, priority 2016, dated 2023)
“Also recorded” adds a separate entry of the source. Where a name gives a salt, the structure may show the parent alone.

Experiments:
[1] = tested on: GLUT4; assay: GLUT4 carbonylation in adipose tissue of HFD mice by MRM; format: in vivo, C57BL/6J mice; conditions: about 10 mg/kg per day in water, two weeks, n=8, P<0.02, FIG. 8A
Source text: MRM-MS is a quantitative mass spectrometry-based target technology that generates unique fragment ions associated with their corresponding precursor ions. These ions can be detected and quantified in complex matrix samples. The quantitation of peptides is obtained measuring the intensity of the fragment ions. To detect carbonylated GLUT4, specific peptides were selected. The parent ion for the carbonylated GLUT4 sequence LTGWADVSGVLAELKDEK-4HNE (SEQ ID NO:2) with triple charge mass is 696.381 m/z. After fragmentation of the parent ion, relative daughter ions: 1101.94, 788.4758, 917.5138, 988.5555, 722.4186, and 481.9482 m/z were identified and used for the quantification of the carbonylated Glut 4 peptide. […] This internal standard peptide allows a relative quantification because it is used for normalization of the intensity of each GLUT4 peptide within the same sample.
MRM analyses were performed with a DIONEX UltiMate™ 3000 SRLCnano HPLC system (Thermo Scientific) coupled to a TSQ QUANTUM™ ULTRA (Thermo Scientific) triple quadrupole. PINPOINT™ software was used for method development and the optimization of the mass spectrometer parameters, as well as for peptide quantification. […]
Thirty-two C57BL/6J mice 8-weeks old were selected and randomly separated. […] Glucose levels were measured at 20, 40, 80 and 140 minutes after glucose administration in a glucose time test (GTT). […]

[2] = tested on: 3T3-L1 adipocytes; assay: 13C6-glucose uptake in 3T3-L1 adipocytes exposed to 4HNE/H2O2 (Example 7); format: cell-based, mouse; conditions: 0.1, 1, 10 and 100 μM compound for 2 h, then 4HNE/H2O2 100 μM each 1 h; FIG. 5; dihydrochloride
Method: 3T3-L1 Mouse Embryonic Fibroblasts, ATCC® CL-173™ were differentiated to adipocytes using chemically-induced differentiation according to the ATCC guidelines. Differentiated 3T3-L1 Adipocyte 4e^6 cell were incubated overnight in glucose free media (RPMI ref. #11879 Gibco) containing 1% dialyzed fetal bovine serum (ref. #26400 Gibco) at 37° C. Cells were washed with and incubated for 1 h with glucose free media before compound exposure. Cells were incubated with and without increasing concentration (0.1, 1, 10 and 100 μM) of (S)-2-amino-6-((3-aminopropyl)amino)hexanoic acid dihydrochloride (title compound) for 2 h at 37° C., followed by 3 wash steps in glucose free phosphate buffer. […]
Cells were washed with PBS, followed by addition of glucose free DMEM medium containing 20 mM of ^13C6 glucose, 10 mM, 2-fluorodeoxyglucose (2-FDG) and insulin 10 pM (Sigma I5500) incubated for 1 hour at 37° C. 2-FDG is an inhibitor of glucose metabolism, thus preventing glucose breakdown and allowing its accumulation to further be measure and quantified. […]
The detection of the ^13C6 glucose, was carried out using a Waters Xevo™ triple quadrupole tandem mass spectrometer (Waters Corp., Manchester, UK). […] Chromatographic and mass spectrum data were collected and analyzed with Waters MassLynx v4.1 software. […]

## NCCCNCCCC[C@H](N)C(=O)O [APL, (S)-2-amino-6-((3-aminopropyl)amino)hexanoic acid dihydrochloride]
[1]
  reduction of GLUT4 carbonylations in adipose tissue: about 50%
[2]
  glucose uptake impairment induced by 4-HNE and H2O2: able to prevent the glucose uptake impairment induced by 4-HNE and H2O2, in a dose-dependent fashion; also recorded: prevented glucose uptake-impairing effect of 4-HNE and H2O2, in a dose-dependent fashion
